Test results reported in patent US12404241B2 (Celgene Corporation, priority 2018, dated 2025).

Biological target: T1, AR (Homo sapiens, UniProt P10275)
T1 construct: endogenous in cells; host or cells: VCaP cells
T1 sequence (P10275 1-920): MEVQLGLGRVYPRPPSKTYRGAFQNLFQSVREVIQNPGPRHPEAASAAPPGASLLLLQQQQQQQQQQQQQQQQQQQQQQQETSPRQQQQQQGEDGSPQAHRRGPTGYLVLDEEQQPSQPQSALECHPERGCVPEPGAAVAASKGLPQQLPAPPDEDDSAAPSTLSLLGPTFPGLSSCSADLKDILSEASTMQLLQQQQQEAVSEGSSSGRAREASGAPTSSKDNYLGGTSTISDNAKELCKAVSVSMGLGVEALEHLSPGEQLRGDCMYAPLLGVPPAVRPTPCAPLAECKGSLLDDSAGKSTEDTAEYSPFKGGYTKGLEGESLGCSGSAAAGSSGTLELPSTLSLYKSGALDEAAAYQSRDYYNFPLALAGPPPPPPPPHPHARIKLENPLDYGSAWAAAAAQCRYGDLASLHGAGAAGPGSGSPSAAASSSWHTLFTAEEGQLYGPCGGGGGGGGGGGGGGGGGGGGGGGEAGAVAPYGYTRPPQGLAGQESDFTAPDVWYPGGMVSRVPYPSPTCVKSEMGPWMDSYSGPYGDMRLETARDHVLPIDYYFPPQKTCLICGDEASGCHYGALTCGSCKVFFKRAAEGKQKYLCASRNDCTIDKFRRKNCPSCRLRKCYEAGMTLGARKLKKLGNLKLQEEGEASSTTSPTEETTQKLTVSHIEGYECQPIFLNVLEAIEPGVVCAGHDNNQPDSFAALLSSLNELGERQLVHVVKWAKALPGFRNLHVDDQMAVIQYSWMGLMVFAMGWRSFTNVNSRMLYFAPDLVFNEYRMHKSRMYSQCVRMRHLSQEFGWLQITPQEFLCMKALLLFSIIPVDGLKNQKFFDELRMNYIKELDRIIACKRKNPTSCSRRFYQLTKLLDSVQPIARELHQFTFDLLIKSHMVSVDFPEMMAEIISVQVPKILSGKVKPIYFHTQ
Assay: VCAP AR Degradation Assay
Type: cell-based
Conditions: for Y (AR degradation efficiency, % of DMSO control): class symbols *; for DC50: class symbols A-C, read-out: DC50
How it was run: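 Compounds were plated as 10-point 1:3 series reaching 5 μM final, then VCaP cells were seeded onto them and incubated 24 h at 37 °C. Cells were lysed cold, and total AR was measured by sandwich ELISA relative to 0.1% DMSO wells.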

Structure (SMILES) | Y (AR degradation efficiency, % of DMSO control) | DC50 [nM]
CCc1cc(N2C(=S)N(c3cnc(C#N)c(C(F)(F)F)c3)C(=O)C2(C)C)ccc1OCCN1CCN(CC(=O)Nc2cc(F)cc(NC3CCC(=O)NC3=O)c2)C2(CC2)C1 (stereo not shown) [Example 110, 2-(7-(2-(4-(3-(6-cyano-5-(trifluoromethyl)pyridin-3-yl)-5,5-dimethyl-4-oxo-2-thioxoimidazolidin-1-yl)-2-ethylphenoxy)ethyl)-4,7-diazaspiro[2.5]octan-4-yl)-N-(3-(2,6-dioxopiperidin-3-ylamino)-5-fluorophenyl)acetamide] | * (0<Y<=25%) | < 100
CCc1cc(N2C(=S)N(c3ccc(C#N)c(C(F)(F)F)c3)C(=O)C2(C)C)ccc1OCCN1CCN(CC(=O)Nc2cccc(N[C@H]3CCC(=O)NC3=O)c2)[C@H](C)C1 [Example 111, 2-((R)-4-(2-(4-(3-(4-cyano-3-(trifluoromethyl)phenyl)-5,5-dimethyl-4-oxo-2-thioxoimidazolidin-1-yl)-2-ethylphenoxy)ethyl)-2-methylpiperazin-1-yl)-N-(3-((S)-2,6-dioxopiperidin-3-ylamino)phenyl)acetamide] | * (0<Y<=25%) | < 100
CCc1cc(N2C(=S)N(c3ccc(C#N)c(C(F)(F)F)c3)C(=O)C2(C)C)ccc1OCCN1CCN(CC(=O)Nc2cccc(N[C@@H]3CCC(=O)NC3=O)c2)[C@H](C)C1 [Example 112, 2-((R)-4-(2-(4-(3-(4-cyano-3-(trifluoromethyl)phenyl)-5,5-dimethyl-4-oxo-2-thioxoimidazolidin-1-yl)-2-ethylphenoxy)ethyl)-2-methylpiperazin-1-yl)-N-(3-((R)-2,6-dioxopiperidin-3-ylamino)phenyl)acetamide] | * (0<Y<=25%) | < 100
CCc1cc(N2C(=S)N(c3cnc(C#N)c(C(F)(F)F)c3)C(=O)C2(C)C)ccc1OCCN1C[C@@H]2C[C@H]1CN2CC(=O)Nc1cc(Cl)cc(NC2CCC(=O)NC2=O)c1 (stereo partly drawn) [Example 115, N-(3-chloro-5-(2,6-dioxopiperidin-3-ylamino)phenyl)-2-((1S,4S)-5-(2-(4-(3-(6-cyano-5-(trifluoromethyl)pyridin-3-yl)-5,5-dimethyl-4-oxo-2-thioxoimidazolidin-1-yl)-2-ethylphenoxy)ethyl)-2,5-diazabicyclo[2.2.1]heptan-2-yl)acetamide] | ** (25%<Y<=35%) | 100 to 500
CCc1cc(N2C(=S)N(c3cnc(C#N)c(C(F)(F)F)c3)C(=O)C2(C)C)ccc1OCCN1CCN([C@@H](C)C(=O)Nc2cc(F)cc(NC3CCC(=O)NC3=O)c2)CC1 (stereo partly drawn) [Example 116, (2S)-2-(4-(2-(4-(3-(6-cyano-5-(trifluoromethyl)pyridin-3-yl)-5,5-dimethyl-4-oxo-2-thioxoimidazolidin-1-yl)-2-ethylphenoxy)ethyl)piperazin-1-yl)-N-(3-(2,6-dioxopiperidin-3-ylamino)-5-fluorophenyl)propanamide] | * (0<Y<=25%) | < 100
CCc1cc(N2C(=S)N(c3cnc(C#N)c(C(F)(F)F)c3)C(=O)C2(C)C)ccc1OCCN1CCN([C@H](C)C(=O)Nc2cc(F)cc(NC3CCC(=O)NC3=O)c2)CC1 (stereo partly drawn) [Example 117, (2R)-2-(4-(2-(4-(3-(6-cyano-5-(trifluoromethyl)pyridin-3-yl)-5,5-dimethyl-4-oxo-2-thioxoimidazolidin-1-yl)-2-ethylphenoxy)ethyl)piperazin-1-yl)-N-(3-(2,6-dioxopiperidin-3-ylamino)-5-fluorophenyl)propanamide] | * (0<Y<=25%) | < 100
CCc1cc(N2C(=S)N(c3cnc(C#N)c(C(F)(F)F)c3)C(=O)C2(C)C)ccc1OCCN1CCN([C@@H](C)C(=O)Nc2cccc(NC3CCC(=O)NC3=O)c2)CC1 (stereo partly drawn) [Example 118, (2S)-2-(4-(2-(4-(3-(6-cyano-5-(trifluoromethyl)pyridin-3-yl)-5,5-dimethyl-4-oxo-2-thioxoimidazolidin-1-yl)-2-ethylphenoxy)ethyl)piperazin-1-yl)-N-(3-(2,6-dioxopiperidin-3-ylamino)phenyl)propanamide] | * (0<Y<=25%) | < 100
CCc1cc(N2C(=S)N(c3cnc(C#N)c(C(F)(F)F)c3)C(=O)C2(C)C)ccc1OCCN1CCN([C@H](C)C(=O)Nc2cccc(NC3CCC(=O)NC3=O)c2)CC1 (stereo partly drawn) [Example 119, (2R)-2-(4-(2-(4-(3-(6-cyano-5-(trifluoromethyl)pyridin-3-yl)-5,5-dimethyl-4-oxo-2-thioxoimidazolidin-1-yl)-2-ethylphenoxy)ethyl)piperazin-1-yl)-N-(3-(2,6-dioxopiperidin-3-ylamino)phenyl)propanamide] | * (0<Y<=25%) | < 100
CCc1cc(N2C(=S)N(c3cnc(C#N)c(C(F)(F)F)c3)C(=O)C2(C)C)ccc1OCCN1C[C@H]2C[C@@H]1CN2CC(=O)Nc1cc(Cl)cc(NC2CCC(=O)NC2=O)c1 (stereo partly drawn) [Example 120, N-(3-chloro-5-(2,6-dioxopiperidin-3-ylamino)phenyl)-2-((1R,4R)-5-(2-(4-(3-(6-cyano-5-(trifluoromethyl)pyridin-3-yl)-5,5-dimethyl-4-oxo-2-thioxoimidazolidin-1-yl)-2-ethylphenoxy)ethyl)-2,5-diazabicyclo[2.2.1]heptan-2-yl)acetamide] | ** (25%<Y<=35%) | 100 to 500
CCc1cc(N2C(=S)N(c3ccc(C#N)c(C(F)(F)F)c3)C(=O)C2(C)C)ccc1OCCN1C[C@@H](C)N(CC(=O)Nc2cccc(NC3CCC(=O)NC3=O)c2)C[C@@H]1C (stereo partly drawn) [Example 121, 2-((2R,5S)-4-(2-(4-(3-(4-cyano-3-(trifluoromethyl)phenyl)-5,5-dimethyl-4-oxo-2-thioxoimidazolidin-1-yl)-2-ethylphenoxy)ethyl)-2,5-dimethylpiperazin-l-yl)-N-(3-(2,6-dioxopiperidin-3-ylamino)phenyl)acetamide] | * (0<Y<=25%) | < 100
CCc1cc(N2C(=S)N(c3ccc(C#N)c(C(F)(F)F)c3)C(=O)C2(C)C)ccc1OCCN1C[C@H](C)N(CC(=O)Nc2cccc(NC3CCC(=O)NC3=O)c2)C[C@H]1C (stereo partly drawn) [Example 122, 2-((2S,5R)-4-(2-(4-(3-(4-cyano-3-(trifluoromethyl)phenyl)-5,5-dimethyl-4-oxo-2-thioxoimidazolidin-1-yl)-2-ethylphenoxy)ethyl)-2,5-dimethylpiperazin-1-yl)-N-(3-(2,6-dioxopiperidin-3-ylamino)phenyl)acetamide] | ** (25%<Y<=35%) | 100 to 500
CCc1cc(N2C(=S)N(c3ccc(C#N)c(C(F)(F)F)c3)C(=O)C2(C)C)ccc1OCCN1C[C@@H](C)N(CC(=O)Nc2cc(Cl)cc(NC3CCC(=O)NC3=O)c2)C[C@@H]1C (stereo partly drawn) [Example 123, N-(3-chloro-5-(2,6-dioxopiperidin-3-ylamino)phenyl)-2-((2R,5S)-4-(2-(4-(3-(4-cyano-3-(trifluoromethyl)phenyl)-5,5-dimethyl-4-oxo-2-thioxoimidazolidin-1-yl)-2-ethylphenoxy)ethyl)-2,5-dimethylpiperazin-1-yl)acetamide] | * (0<Y<=25%) | < 100
CCc1cc(N2C(=S)N(c3ccc(C#N)c(C(F)(F)F)c3)C(=O)C2(C)C)ccc1OCCN1C[C@H](C)N(CC(=O)Nc2cc(Cl)cc(NC3CCC(=O)NC3=O)c2)C[C@H]1C (stereo partly drawn) [Example 124, N-(3-chloro-5-(2,6-dioxopiperidin-3-ylamino)phenyl)-2-((2S,5R)-4-(2-(4-(3-(4-cyano-3-(trifluoromethyl)phenyl)-5,5-dimethyl-4-oxo-2-thioxoimidazolidin-1-yl)-2-ethylphenoxy)ethyl)-2,5-dimethylpiperazin-1-yl)acetamide] | * (0<Y<=25%) | 100 to 500
CCc1cc(N2C(=S)N(c3ccc(C#N)c(C(F)(F)F)c3)C(=O)C2(C)C)ccc1OCCN1C[C@H](C)N(CC(=O)Nc2cccc(NC3CCC(=O)NC3=O)c2)C[C@@H]1C (stereo partly drawn) [Example 125, 2-((2S,5S)-4-(2-(4-(3-(4-cyano-3-(trifluoromethyl)phenyl)-5,5-dimethyl-4-oxo-2-thioxoimidazolidin-1-yl)-2-ethylphenoxy)ethyl)-2,5-dimethylpiperazin-1-yl)-N-(3-(2,6-dioxopiperidin-3-ylamino)phenyl)acetamide] | * (0<Y<=25%) | 100 to 500
